Here are results for one substance from US20150098963A1, “METHODS AND COMPOSITIONS FOR IMPROVING THE APPEARANCE OF SKIN” (priority 2013, published 2015).

In the assay the test system is SIRT6. Kind of assay: SIRT6 expression by immunohistochemistry in Normal Human Epidermal Keratinocytes. The assay is classed as cell-based. The conditions noted are these: 1% and 3% of a 50 ppm peptide solution, 48 h treatment, FIG. 2. On the procedure: SIRT6 is a member of the conserved family of sirtuin proteins which are associated with metabolism and longevity. SIRT6 is a histone 3, lysine 9 (H3K9) deacetylase and is primarily involved in DNA repair and telomere stability. The peptide of (SEQ ID No. 5) Gly-Ala-Gly-Val-Ser-Ala-Glu-NH2 was tested for Sirt6 stimulating activity as follows.
• Normal Human Epidermal Keratinocytes p3 • EpiLife Medium (Invitrogen) • Human Keratinocyte Growth Supplement (Invitrogen) • 1× Dulbecco's Phosphate Buffered Saline (DPBS) made from: • 10× DPBS (Mediatech) • Distilled, Deionized Water • Peptide of SEQ ID No. 5 • Rabbit polyclonal antibody to Sirt6 (Abcam) • Alexa Fluor 488 donkey anti-rabbit IgG (H+L) (Invitrogen) • Triton-X 100 (Fisher) • Albumin, Bovine (Sigma) • Vectashield with 4′,6-diamidino-2-phenylindole (DAPI) (Vector)
• 1. Cells were plated into 4 well chamber slides @ 10,000 cells/chamber and incubated at 37° C., 5% CO2 & 95% humidity for 24 hours. • 2. The peptide of SEQ ID No. 5 was prepared as follows: • 2.1. Dissolved 5 mg peptide in 5 ml medium to make a 1000 ppm stock solution. • 2.2. Diluted the stock solution to 50 ppm by combining 400 μl 1000 ppm stock solution with 7.6 ml medium • 2.3. Prepared a 3% of the 50 ppm solution by combining 1.5 ml 50 ppm stock with 48.5 ml medium • 2.4. Prepared a 1% of the 50 ppm solution by combining 0.5 ml 50 ppm stock with […] medium • 3. […]

Ends that are not written are not given here.

In the case of “Gly-Ala-Gly-Val-Ser-Ala-Glu-NH2 (GAGVSAE-NH2) [SEQ ID No. 5]”, the SIRT6 expression entry was “dose dependent increase in SIRT6 expression”.
